Assay results from article PMC4335062, “Data-Driven Prediction and Design of bZIP Coiled-Coil Interactions” (PLoS Computational Biology, 2015).
Like-named read-outs stand apart in the source and are kept apart here. One block for each sequence: values may come before it. Where no end group is shown, it is not given here.

Legend:
Assay in all cases: Direct-binding FRET assay
CREB1 = biological target: T1, CREB1 (Homo sapiens, UniProt P16220); conditions: mean or single, read-out: Kd
T1 construct: made in house
T1 sequence (P16220 269-327 limits assumed): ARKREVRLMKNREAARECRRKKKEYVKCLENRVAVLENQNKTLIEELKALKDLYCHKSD
Procedure: (§1) The direct binding assay was performed manually in 384-well plates and is similar to a previously described assay. Wells were filled with 20 μL of 1 mM TCEP-HCl. A 4 μM stock of acceptor protein was made fresh in 1 mM TCEP-HCl, and 20 μL was titrated in 2-fold dilutions over the wells. […] The direct-binding FRET data were fit as previously described. Briefly, the Kd of the designed peptide homodimer was experimentally determined and used with previously determined target homodimer Kd values to determine the heterodimer Kd. The homodimer Kd values used for the human bZIPs were from; experiments done by […] et al. used the same protein constructs for the human bZIP proteins, the same buffer conditions, and the same assay. The fitting used a system of ordinary differential equations to describe the concentrations of homo and heterodimers formed by the donor (D) and acceptor (A) as a function of the heterodimer Kd. MATLAB was used to simulate the binding experiment for different Kd values, and the value that gave the best agreement between simulation and experiment was assigned. A minimum 15% change in the donor fluorescence upon titrating the acceptor peptide from 0 to 1000 nM was required for a fit to be attempted. If this minimum was not met, the interaction was classified as “NS” for no signal change. […] For such curves, we removed the first five points and re-fit the data.

MAFF = biological target: T2, MAFF (Homo sapiens, UniProt Q9ULX9); conditions: read-out: Kd
T2 construct: made in house
T2 sequence (Q9ULX9 51-114 limits assumed): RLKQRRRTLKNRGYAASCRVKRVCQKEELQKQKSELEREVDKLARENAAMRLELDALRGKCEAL
Procedure: as §1

ATF3 = biological target: T3, ATF3 (Homo sapiens, UniProt P18847); conditions: read-out: Kd
T3 construct: made in house
T3 sequence (P18847 86-149 limits assumed): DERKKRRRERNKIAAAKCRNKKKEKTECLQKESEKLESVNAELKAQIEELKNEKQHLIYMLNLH
Procedure: as §1

ATF4 = biological target: T4, ATF4 (Homo sapiens, UniProt P18848); conditions: read-out: Kd
T4 construct: made in house
T4 sequence (P18848 278-341 limits assumed): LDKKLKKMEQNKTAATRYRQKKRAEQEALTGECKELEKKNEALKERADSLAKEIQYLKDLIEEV
Procedure: as §1

NFE2 = biological target: T5, NFE2 (Homo sapiens, UniProt Q16621); conditions: read-out: Kd
T5 construct: made in house
T5 sequence (Q16621 266-329 limits assumed): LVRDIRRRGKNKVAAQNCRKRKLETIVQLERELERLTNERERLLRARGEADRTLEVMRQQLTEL
Procedure: as §1

XBP1 = biological target: T6, XBP1 (Homo sapiens, UniProt P17861); conditions: read-out: Kd
T6 construct: made in house
T6 sequence (P17861 70-133 limits assumed): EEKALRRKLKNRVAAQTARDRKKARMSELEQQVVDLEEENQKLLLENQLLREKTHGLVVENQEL
Procedure: as §1

NFE2L3 = biological target: T7, NFE2L3 (Homo sapiens, UniProt Q9Y4A8); conditions: mean or single, read-out: Kd
T7 construct: made in house
T7 sequence (Q9Y4A8 578-641 limits assumed): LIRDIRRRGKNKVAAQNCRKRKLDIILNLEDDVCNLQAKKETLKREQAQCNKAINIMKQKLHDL
Procedure: as §1

MAFG = MAFG (Homo sapiens, UniProt O15525); set-up: made in house; conditions: read-out: Kd
Sequence of MAFG (O15525 51-114 limits assumed): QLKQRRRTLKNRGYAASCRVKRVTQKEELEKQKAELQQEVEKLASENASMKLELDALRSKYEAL
Procedure: as §1

FOS = FOS (Homo sapiens, UniProt P01100); set-up: made in house; conditions: read-out: Kd
Procedure: as §1

JUN = JUN (Homo sapiens, UniProt P05412); set-up: made in house; conditions: mean or single, read-out: Kd
Procedure: as §1

ATF6B = ATF6B (Homo sapiens, UniProt Q99941); set-up: made in house; conditions: read-out: Kd
Sequence of ATF6B (Q99941 325-388 limits assumed): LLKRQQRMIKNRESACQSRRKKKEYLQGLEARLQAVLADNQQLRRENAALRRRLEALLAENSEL
Procedure: as §1

[1] = 4°C, C-terminal rhodamine design
[2] = 4°C, N-terminal rhodamine design
[3] = 23°C, C-terminal rhodamine design
[4] = 23°C, N-terminal rhodamine design
[5] = 37°C, N-terminal rhodamine design
[6] = 4°C, C-terminal rhodamine design, mean or single
[7] = 4°C, N-terminal rhodamine design, repeat 1
[8] = 23°C, C-terminal rhodamine design, mean or single
[9] = 23°C, N-terminal rhodamine design, repeat 1
[10] = 37°C, C-terminal rhodamine design, mean or single
[11] = 4°C, N-terminal rhodamine design, mean or single
[12] = 23°C, N-terminal rhodamine design, mean or single
[13] = 37°C, N-terminal rhodamine design, mean or single
[14] = 23°C, N-terminal rhodamine design, repeat 2
[15] = 37°C, C-terminal rhodamine design
[16] = 37°C, C-terminal rhodamine design, repeat 1
[17] = 37°C, C-terminal rhodamine design, repeat 2
[18] = 4°C, C-terminal fluorescein design as donor, TAMRA target titrated
[19] = 23°C, C-terminal fluorescein design as donor, TAMRA target titrated
[20] = 37°C, C-terminal fluorescein design as donor, TAMRA target titrated

- Kd (CREB1; [1]): 0.133 µM
- Kd (CREB1; [2]): 0.506 µM
- Kd (CREB1; [3]): 0.589 µM
- Kd (CREB1; [4]): > 5 µM
- Kd (CREB1; [5]): > 1 µM
- Kd (MAFF; [6]): 0.266 µM
- Kd (MAFF; [7]): > 5 µM
- Kd (MAFF; [8]): > 5 µM
- Kd (MAFF; [9]): > 5 µM
- Kd (MAFF; [10]): > 5 µM
- Kd (MAFF; 37°C, N-terminal rhodamine design, repeat 1): > 5 µM
- Kd (ATF3; [6]): > 5 µM
- Kd (ATF3; [11]): > 1 µM
- Kd (ATF3; [8]): > 5 µM
- Kd (ATF3; [12]): > 1 µM
- Kd (ATF3; [10]): > 1 µM
- Kd (ATF3; [13]): > 1 µM
- Kd (ATF4; [6]): 0.001 µM
- Kd (ATF4; [11]): > 1 µM
- Kd (ATF4; [7]): > 1 µM
- Kd (ATF4; 4°C, N-terminal rhodamine design, repeat 2): > 1 µM
- Kd (ATF4; 4°C, N-terminal rhodamine design, repeat 3): > 1 µM
- Kd (ATF4; [8]): 0.001 µM
- Kd (ATF4; [9]): > 5 µM
- Kd (ATF4; [14]): > 5 µM
- Kd (NFE2; [6]): 0.162 µM
- Kd (NFE2; [11]): > 5 µM
- Kd (NFE2; [8]): > 5 µM
- Kd (NFE2; [12]): > 1 µM
- Kd (NFE2; [10]): > 5 µM
- Kd (NFE2; [13]): > 1 µM
- Kd (XBP1; [6]): > 5 µM
- Kd (XBP1; [11]): > 5 µM
- Kd (XBP1; [8]): > 1 µM
- Kd (XBP1; [12]): > 5 µM
- Kd (XBP1; [10]): > 1 µM
- Kd (XBP1; [13]): > 5 µM
- Kd (NFE2L3; [1]): > 5 µM
- Kd (NFE2L3; [2]): > 1 µM
- Kd (NFE2L3; [3]): > 1 µM
- Kd (NFE2L3; [4]): > 1 µM
- Kd (NFE2L3; [15]): 0.911 µM
- Kd (NFE2L3; [5]): > 1 µM
- Kd (MAFG; [6]): > 5 µM
- Kd (MAFG; [8]): > 1 µM
- Kd (MAFG; [12]): > 1 µM
- Kd (MAFG; [10]): > 1 µM
- Kd (MAFG; [13]): > 1 µM
- Kd (FOS; [11]): 0.0896 µM
- Kd (FOS; [12]): 0.753 µM
- Kd (FOS; [16]): > 5 µM
- Kd (FOS; [17]): > 5 µM
- Kd (JUN; [1]): 0.119 µM
- Kd (JUN; [2]): > 5 µM
- Kd (JUN; [3]): > 5 µM
- Kd (JUN; [4]): > 5 µM
- Kd (JUN; [15]): > 5 µM
- Kd (JUN; [5]): > 5 µM
- Kd (ATF6B; [11]): > 5 µM
- Kd (ATF6B; 23°C, C-terminal rhodamine design, repeat 1): > 5 µM
- Kd (ATF6B; 23°C, C-terminal rhodamine design, repeat 2): > 5 µM
- Kd (ATF6B; [12]): > 5 µM
- Kd (ATF6B; [16]): > 5 µM
- Kd (ATF6B; [17]): > 5 µM
Sequence: KRIAYLRQRIAELRNENHVLESRIQRMEKEKDALQQDRDHLEYEL [ATF5-d1]

- Kd (CREB1; [1]): > 5 µM
- Kd (CREB1; [2]): > 1 µM
- Kd (CREB1; [3]): > 1 µM
- Kd (CREB1; [4]): > 1 µM
- Kd (CREB1; [15]): > 1 µM
- Kd (CREB1; [5]): > 1 µM
- Kd (MAFF; [18]): > 1 µM
- Kd (MAFF; [6]): > 1 µM
- Kd (MAFF; [11]): > 1 µM
- Kd (MAFF; [19]): > 1 µM
- Kd (MAFF; [8]): > 1 µM
- Kd (MAFF; [12]): > 1 µM
- Kd (MAFF; [20]): > 1 µM
- Kd (MAFF; [10]): > 1 µM
- Kd (MAFF; [13]): > 1 µM
- Kd (ATF3; [18]): > 1 µM
- Kd (ATF3; [6]): > 1 µM
- Kd (ATF3; [11]): > 1 µM
- Kd (ATF3; [19]): > 1 µM
- Kd (ATF3; [8]): > 1 µM
- Kd (ATF3; [12]): > 1 µM
- Kd (ATF3; [20]): > 1 µM
- Kd (ATF3; [10]): > 1 µM
- Kd (ATF3; [13]): > 1 µM
- Kd (ATF4; [6]): > 1 µM
- Kd (ATF4; [11]): > 1 µM
- Kd (ATF4; [8]): > 1 µM
- Kd (ATF4; [12]): > 1 µM
- Kd (ATF4; [10]): > 1 µM
- Kd (ATF4; [13]): > 1 µM
- Kd (NFE2; [18]): > 1 µM
- Kd (NFE2; [6]): > 1 µM
- Kd (NFE2; [11]): > 1 µM
- Kd (NFE2; [19]): > 1 µM
- Kd (NFE2; [8]): > 1 µM
- Kd (NFE2; [12]): > 1 µM
- Kd (NFE2; [20]): > 1 µM
- Kd (NFE2; [10]): > 1 µM
- Kd (NFE2; [13]): > 1 µM
- Kd (XBP1; [9]): > 1 µM
- Kd (XBP1; [14]): > 1 µM
- Kd (XBP1; 23°C, N-terminal rhodamine design, repeat 3): > 1 µM
- Kd (NFE2L3; [1]): > 1 µM
- Kd (NFE2L3; [2]): > 1 µM
- Kd (NFE2L3; [3]): > 1 µM
- Kd (NFE2L3; [4]): > 1 µM
- Kd (NFE2L3; [15]): > 5 µM
- Kd (NFE2L3; [5]): > 1 µM
- Kd (MAFG; [18]): > 1 µM
- Kd (MAFG; [6]): > 1 µM
- Kd (MAFG; [11]): > 1 µM
- Kd (MAFG; [19]): > 1 µM
- Kd (MAFG; [8]): > 1 µM
- Kd (MAFG; [12]): > 1 µM
- Kd (MAFG; [20]): > 1 µM
- Kd (MAFG; [10]): > 1 µM
- Kd (MAFG; [13]): > 1 µM
- Kd (FOS; [18]): > 1 µM
- Kd (FOS; [6]): > 1 µM
- Kd (FOS; [11]): > 1 µM
- Kd (FOS; [19]): > 1 µM
- Kd (FOS; [8]): > 1 µM
- Kd (FOS; [12]): > 1 µM
- Kd (FOS; [20]): > 1 µM
- Kd (FOS; [10]): > 1 µM
- Kd (FOS; [13]): > 1 µM
- Kd (JUN; [1]): > 1 µM
- Kd (JUN; [2]): > 1 µM
- Kd (JUN; [3]): > 1 µM
- Kd (JUN; [4]): > 1 µM
- Kd (JUN; [15]): > 1 µM
- Kd (JUN; [5]): > 1 µM
- Kd (ATF6B; [18]): > 1 µM
- Kd (ATF6B; 4°C, C-terminal rhodamine design, repeat 1): 0.2 to 1 µM
- Kd (ATF6B; 4°C, C-terminal rhodamine design, repeat 2): > 1 µM
- Kd (ATF6B; [19]): > 1 µM
- Kd (ATF6B; [12]): > 1 µM
- Kd (ATF6B; [20]): > 1 µM
- Kd (ATF6B; [10]): > 1 µM
- Kd (ATF6B; [16]): > 1 µM
- Kd (ATF6B; [17]): > 1 µM
- Kd (ATF6B; [13]): > 1 µM
Sequence: EREAQLENRVAHLKEKNQELKAQNLHLKEALSEAQNRNQELKNDA [XBP1-d1]
